According to patent US20210008084A1, “MEVALONATE PATHWAY INHIBITOR AND PHARMACEUTICAL COMPOSITION THEREOF” (TSINGHUA UNIVERSITY, priority 2017, published 2021):

What was measured:
[1] = tested on: B16F10 cells; test: Type I interferon and ISG gene expression by Q-PCR in B16F10; assay type: cell-based, mouse; conditions: GGOH 20 μM with Sim 10 μM or Zol 10 μM, 48 h
Experimental: Method: B16F10 cells were cultured with RPMI medium 1640+10% FBS+1% PS, and the remaining cells were cultured with DMEM+10% FBS+1% PS. 5×10^5 B16F10 and 4T1 cells were plated in 6-well plates and adhered for 12 hours, and then treated with simvastatin and zoledronic acid in the figure, and the control group was treated with normal culture medium. A part of the cells treated with the drugs were lysed with 1 ml of Trizol, and RNA was extracted. The expression of IFN-β1, IRF7, IFI44L, IL-15, MAGEB-2 and other genes was detected by LightCycler® 480 II using a Q-PCR method (see table 3 for the primer sequence). In addition, the rescue effect of GGOH on the role of simvastatin and zoledronic acid to promote the release of type I interferon (IFN-β1) and the expression of type I interferon-related stimulated genes ISGs was also tested.

[2] = tested on: B16F10 cells; test: Phagocytosis of drug-treated B16F10 cells by bone marrow-derived DC cells; assay type: cell-based, mouse; conditions: B16F10 treated with Sim 30 μM 12 h, Zol 30 μM 24 h, Doxorubicin 10 μM 12 h; flow cytometry
Experimental: Method: C57/b6 mouse bone marrow cells were cultured in DC differentiation solution, RMPI 1640+10 ng/ml GM-CSF+10 ng/ml IL-4 containing 10% FBS for 7 days. It was ready for use when the percentage of DC cells was above 90%.
B16F10 cells were plated in 6-well plates at a density of 5×10^5. After being adhered for 12 hours, they were treated with Sim and Zol in the figure, and the control group was treated with normal culture medium. The cells treated with the drug were digested with trypsin, and the cells were obtained after centrifugation.
Cell Staining: Flow Cytometry Staining: B16F10 tumor cells were stained for 30 min in 1 ug/ml CFSE at room temperature, and washed twice with PBS after staining; BMDC cells were stained for 30 min in 1 uM CellTracker™ Red, and washed twice with PBS after staining. Cells were ready for use. Immunofluorescence staining: B16F10 cells were stained with DiD, and DC cells were stained with CFSE.
After the drug treatment, the B16F10 control group Ctrl, Sim treatment group, Zol treatment group, and DOX treatment group were co-incubated with DC cells in a 1:1 ratio for 3 hours in an incubator at 37° C., and fixed with 200 ul fluorescent antibody preservation solution (1 ml formaldehyde, 2 g glucose dissolved in 100 ml PBS) after the incubation. Flow cytometer BD FACSAria SORP was used for detection. Data was analyzed with Flojo 7.6.2 software. Cell Tracker™ Red-positive DC cells were first circled out, and the number of CellTracker™ Red-positive DC cells phagocytosing CFSE-positive tumor cells was analysized.

[3] = tested on: CT26 cells; test: Drug-treated dying CT26 cells as tumor vaccine, re-challenge with live CT26 cells; assay type: in vivo, mouse; conditions: BALB/c mice immunized with CT26 cells treated 72 h; 30 days after transplantation; n=10
Experimental: Method: CT26 cells were treated with simvastatin or zoledronic acid. 1.5-3×10^6 dying cells were implanted subcutaneously in the right side of BALB/c mice. The control group was injected with PBS. 1×10^6 live CT26 cells were implanted subcutaneously in the left side of the mice, and tumor volume was observed and measured. Mice with tumor volumes >100 mm^3 were identified as tumor-growing mice, and the number of mice without tumor growth was recorded.
A key factor to determine the ability of drugs to induce immunogenic cell death is whether drug-treated tumor cells can be used as vaccines to protect the body against the re-challenge of the tumor cells. We treated CT26 mouse colon cancer cells with Sim and Zol for 72 h to a dying state, and BALB/c mice were immuned with these dying cells, wherein PBS was injected in the control group. After 7 days, the mice were injected with 5×10^5 live CT26 cells (re-challenge), and the tumor growth was observed after 7 days. 100% of the mice in the control group (n=10) grew tumors on day 9. After 30 days of transplantation, in mice immunized with CT26 cells treated with Sim (n=10) and Zol (n=10), the ratios of tumor-free mice were 80% and 90%, respectively, with statistical difference (FIG. 5).

[4] = tested on: B16F10 cells; test: Apoptosis of B16F10 cells, Annexin V and PI staining, flow cytometry; assay type: cell-based, mouse; conditions: after the drug treatment
Experimental: After the drug action, the cells were digested with trypsin into a single-cell suspension, washed with PBS, and stained with Annexin V and PI according to the steps of the apoptosis kit. After staining, data was collected by a flow cytometer, and the data was analyzed by FlowJo7.6. Total RNA was extracted from cells according to the Trizol method, and the RNA was used as a template, and the RNA was reverse transcripted using a reverse transcription kit to cDNA. The obtained cDNA was used for real-time quantitative PCR. 10 μl reaction system was configured according to qPCR SYBR Green Master Mix product instructions, three replicates were set up for each sample. The experimental data was collected using a fluorogenic quantitative PCR instrument LightCycler480 of Roche, and the data was calculated according to the 2^−ΔΔc (t) method.

[5] = tested on: 4T1 cells; test: CRT and ERp57 on tumor cell membrane after intratumoral injection, 4T1 subcutaneous model; assay type: in vivo, mouse; conditions: 4T1 tumors in BALB/c mice, harvested day 14
Experimental: In vivo experiments: 1×10^6 4 T1 cells were transplanted subcutaneously into the left hip of BALB/c mice and administered starting on the 8th day after tumor transplantation: Sim, dissolved in 75% DMSO, 2 mg/kg, intratumoral injection (i.t.), once every two days for a total of 3 times; Zol, dissolved in sterile PBS, 1 mg/kg, i.t. for once. Tumors were harvested on the 14th day after tumor transplantation. Tumor dissociation kit (mouse) was used to dissociate the tumor into single cells for staining. The staining procedure was performed according to the in vitro experiments as mentioned above.

[6] = after at least 3 years of treatment; more than 1,800 patients; cited from earlier work
[7] = tested on: melanoma; conditions: patients progressing after Ipilimumab; cited from earlier work

Compound	DC cells that phagocytosed tumor cells [2]	ratio of tumor-free mice [3]	proportion of cells in the late stage of apoptosis (Annexin+PI+) [4]	CRT expressed on the membrane surface [5]	ERp57 expressed on the membrane surface [5]	also measured
CC(C)=CCC/C(C)=C/CC/C(C)=C/CC/C(C)=C/CO [GGOH]	–	–	–	–	–	effect of GGOH on release of type I interferon and ISG by simvastatin and zoledronic acid [1]: counteract
COc1cccc2c1C(=O)c1c(O)c3c(c(O)c1C2=O)C[C@@](O)(C(=O)CO)C[C@@H]3O[C@H]1C[C@H](N)[C@H](O)[C@H](C)O1 [dox, doxorubicin]	approximately 38%	–	–	–	–	–
CCC(C)(C)C(=O)O[C@H]1C[C@@H](C)C=C2C=C[C@H](C)[C@H](CC[C@@H]3C[C@@H](O)CC(=O)O3)[C@H]21 [simvastatin]	51.6%	80%	about 50%	about 1.7 times that of the control group	about 1.7 times that of the control group	–
O=P(O)(O)C(O)(Cn1ccnc1)P(=O)(O)O [zoledronic acid]	about 35%	90%	about 50%	about 1.7 times that of the control group	about 1.7 times that of the control group	–
Ipilimumab: humanized CTLA-4 antibody	–	–	–	–	–	patient survival rate [6]: approximately 20%
Nivolumab: antibody targeting PD-1	–	–	–	–	–	patients with complete remission [7]: 32%
